Where a SMILES comes first, the peptide text is derived from it. [ ]: non-standard residue; d: D form.
Key:
Toxicity (LD50) = details: in vivo; species and route not given; read-out: LD₅₀
[1] = test system: Patienten mit zerebrospinaler Form der multiplen Sklerose; test: Clinical trial in multiple sclerosis patients: neurological status scored in points (Kurtzke scale: neurological deficit and progression/disability scale), on top of basic therapy; type: in vivo, Menschen
Experimental: Das erfindungsgemässe Präparat für die Behandlung der multiplen Sklerose und der myotrophischen Lateralsklerose wurde in einer Klinik an Menschen erprobt.
Bei der multiplen Sklerose erfolgte die Behandlung mit dem angemeldeten Präparat unter Anwendung der Basistherapie, die die Vitamine der B-Gruppe, Glutaminsäure, Nikotinsäure, Zerebrolysin, Midokalm, und Essentiale einschliesst. Das erfindungsgemässe Präparat wurde den Patienten intramuskulär zu je I bis 5 mg des Wirkstoffes, der in I ml einer physiologischen Lösung aufgelöst wird, zweimal pro Tag innerhalb von 5 Tagen eingeführt.
Bei der Behandlung der multiplen Sklerose wurde die Wirkung des erfindungsgemässen Präparates mit der Wirkung von T-Aktivin verglichen, das unter Anwendung der gleichen wie bei der Behandlung mit dem angemeldeten Präparat Basistherapie eingeführt wurde. Das T-Aktivin führte man den Patienten intramuskulär einmal pro Tag zu je I ml I,0%iger Lösung innerhalb von 5 Tagen ein. Nach einer 7-tägigen Unterbrechung führte man das T-Aktivin in der gleichen dosis während 2 Tage ein.
(§1) Bei der Behandlung der multiplen Sklerose mit dem erfindungsgemässen Präparat und mit T-Aktivin verwendete man neben einer klinischen Analyse der neurologischen Symptome auch eine Methode der Registrierung von kurzlatenten erzeugten Hörpotentialen auf die akustische Stimulation. Die Dynamik der neurologischen Symptome bewertete man in Punkten nach der Kurzkschen Skale. Man führt die Analyse der Punkten-Summe nach der Skale des neurologischen Defizits durch sowie nach der Skale der Invalidisierung (sich verschlimmernde Entwicklung) unter Berücksichtigung der sozialen Adaptation des jeweiligen Patienten durch. Bei der Untersuchung der kurzlatenten erzeugten Hörpotentiale erfolgte die Summierung von 3000 Antworten und es wurden 7 Komponenten registriert, die den funktionellen Zustand folgender Pegel eines Höranalysators widerspiegeln: I - Schneke des Hörnervs, II -Kerne des Cochlearkomplexes, III- Nucleus der oberen Olive, IV - Nucleus der lateralen Schleife, V - Kerne der Höcker der Vierhügelplatte, VI - Kerne mittlerer Kniehöcker, VII - Kerne Auditus kortex. Alle Komponenten wurden nach den Werten der Zwischenpeakintervalle und den Relationen der Peakamplituden analysiert. Die Kontrollgruppe für die Untersuchung der kurzlatenten erzeugten Hörpotentiale bildeten I2 praktisch gesunde Personen.
(§2) Die Untersuchung der Patienten erfolgte vor der Verordnung der Präparate, in 5 und in I4 Tagen nach dem Beginn ihrer Verabreichung.
Hervorzuheben ist, dass bei den Patienten, denen das erfindungsgemässe Präparat und das T-Aktivin verordnet wurden, innnerhalb der letzten zwei Monate keine Dynamik im neurologischen Status nachgewiesen wurde. Das gab die Möglichkeit, die Verbesserung des Zustandes als Effekt von der Verordnung der Präparate zu betrachten.
Die Hauptgruppe der Patienten, die das erfindungsgemässe Präparat verabreicht bekamen, bestand aus 24 Personen (6 Männer und I8 Frauen) im alter von 20 bis 49 Jahren mit zerebrospinaler Form der multiplen Sklerose. Die Dauer der Erkrankung betrug von 2 bis 7 Jahren. Das erfindungsgemässe Präparat führe man den Patienten intramuskulär zu je I bis 2 mg zweimal am Tage innerhalb von 5 Tagen ein. Die Gruppe der Patienten, die das T-Aktivin bekam, bestand aus I4 Personen (6 Männer und 8 Frauen) im Alter von 23 bis 47 Jahren mit zerebrospinaler Form der multiplen Sklerose. Die Dauer der Erkrankung betrug von 2 bis 7 Jahren.
Das T-Aktivin führte man den patienten intramuskulär zu je I ml 0,I%iger Lösung einmal pro Tag innerhalb von 5 Tagen ein. […]
Bei der Einlieferung ins Krankenhaus wurden dem Patienten Vitamine BI und B₆, Glutaminsäure, innerhalb eines Monates Zerebrolysin verabreicht, durchgeführt wurden kurze Kuren mit Midokalm und Essentiale. […]

[2] = test system: Patienten mit amyotrophischen Lateralsklerose; test: Clinical trial in amyotrophic lateral sclerosis patients: course of the disease, on top of conventional nonspecific therapy; type: in vivo, Menschen; details: ALS
[3] = test system: Leitungsbahnen des Hirnstammes; test: Recording of short-latency auditory evoked potentials on acoustic stimulation in multiple sclerosis patients; type: in vivo, Menschen; details: MS patients
Source text: as §1, §2
Die Hauptgruppe der Patienten, die das erfindungsgemässe Präparat verabreicht bekamen, bestand aus 24 Personen (6 Männer und I8 Frauen) im alter von 20 bis 49 Jahren mit zerebrospinaler Form der multiplen Sklerose. Die Dauer der Erkrankung betrug von 2 bis 7 Jahren. Das erfindungsgemässe Präparat führe man den Patienten intramuskulär zu je I bis 2 mg zweimal am Tage innerhalb von 5 Tagen ein. Die Gruppe der Patienten, die das T-Aktivin bekam, bestand aus I4 Personen (6 Männer und 8 Frauen) im Alter von 23 bis 47 Jahren mit zerebrospinaler Form der multiplen Sklerose. Die Dauer der Erkrankung betrug von 2 bis 7 Jahren. […]

[4] = patients with sekundärer Verschlimmerung, effect mainly am I5. Tag
[5] = patients: Leichter Grad, Am I5. Tag
[6] = patients: Remittierend, a) Verschlimmerung, Am I5. Tag
[7] = of 62 patients, listed as Präparat + Nichtspezifische Therapie
[8] = of 62 patients, pronounced plus moderate improvement

Question: Which LD50 (Toxicity (LD50)) does the source give for `CC(C)C[C@H](NC(=O)[C@H](Cc1ccccc1)NC(=O)CNC(=O)[C@@H](C)NC(=O)[C@@H](N)Cc1ccc(O)cc1)C(=O)N[C@@H](CCCNC(=N)N)C(=O)O` [erfindungsgemässe Präparat, Tyr-D-Ala-Gly-Phe-Leu-Arg] (H-Y[dA]GFLR-OH) here?
Answer: 520 mg/kg

Question: What about the “Punkte nach der Skale der sich verschlimmernden Entwicklung” value ([1]; Beispiel I, Patientin K., 46 years, progredient MS, after 5 days of I mg twice daily, before treatment 6) of the same compound?
Answer: 4

Question: What about the “klinische Verbesserung, Anteil der Patienten” value ([1]; MS patients, whole group, after the course of treatment) of the same compound?
Answer: 89%

Question: What about the “Verringerung der Summe der Punkte nach der Skale des neurologischen Defizits” value ([1]; patients with mittlerem Schweregrad, am 6. Tag) of the same compound?
Answer: 4,3 Punkte

Question: What about the “Senkung des Indexes nach der Skale der sich verschlimmernden Entwicklung” value [1, 4] of the same compound?
Answer: 2,4 Punkte

Question: What about the “Verringerung der Summe der Punkte nach der Skale des neurologischen Defizits” value [1, 4] of the same compound?
Answer: 6,3 Punkte

Question: And the “Gesamtpunktenzahl nach der Skala des neurologischen Defizits” value [1, 5]?
Answer: 8,6±0,9 Punkte

Question: What about the “Index nach der Skala der sich verschlimmernden Entwicklung” value [1, 5] of the same compound?
Answer: 2,8±0,5 Punkte

Question: What about the “Index nach der Skala der sich verschlimmernden Entwicklung” value ([1]; patients: Leichter Grad, Vor der Behandlung (baseline)) of the same compound?
Answer: 3,7±0,4 Punkte

Question: And the “Index nach der Skala der sich verschlimmernden Entwicklung” value ([1]; patients: Mittlerer Grad, Am 6. Tag)?
Answer: 4,9±0,3 Punkte

Question: And the “Index nach der Skala der sich verschlimmernden Entwicklung” value ([1]; patients: Mittlerer Grad, Am I5. Tag)?
Answer: 4,4±0,6 Punkte

Question: What about the “Index nach der Skala der sich verschlimmernden Entwicklung” value ([1]; patients: Remittierend, a) Verschlimmerung, Am 6. Tag) of the same compound?
Answer: 3 Punkte

Question: And the “Gesamtpunktenzahl nach der Skala des neurologischen Defizits” value [1, 6]?
Answer: 5 Punkte

Question: And the “Index nach der Skala der sich verschlimmernden Entwicklung” value [1, 6]?
Answer: 2 Punkte

Question: What about the “Index nach der Skala der sich verschlimmernden Entwicklung” value ([1]; patients: Remittierend, a) Verschlimmerung, Vor der Behandlung (baseline)) of the same compound?
Answer: 5 Punkte

Question: What about the “Index nach der Skala der sich verschlimmernden Entwicklung” value ([1]; patients: Remittierend, b) Remission, Am 6. Tag) of the same compound?
Answer: 3,3±0,5 Punkte

Question: And the “Index nach der Skala der sich verschlimmernden Entwicklung” value ([1]; patients: Remittierend, b) Remission, Am I5. Tag)?
Answer: 3,4±0,5 Punkte

Question: What about the “Index nach der Skala der sich verschlimmernden Entwicklung” value ([1]; patients: Remittierend, b) Remission, Vor der Behandlung (baseline)) of the same compound?
Answer: 4,3±0,8 Punkte

Question: And the “Index nach der Skala der sich verschlimmernden Entwicklung” value ([1]; patients: Remittierend, c) sekundäre Verschlimmerung, Am 6. Tag)?
Answer: 4,8±2,0 Punkte

Question: What about the “Index nach der Skala der sich verschlimmernden Entwicklung” value ([1]; patients: Remittierend, c) sekundäre Verschlimmerung, Am I5. Tag) of the same compound?
Answer: 3,5±0,4 Punkte

Question: What about the “Verringerung des Index nach der Skale der Weiterentwicklung der Krankheit” value ([1]; single patient in acute state of MS, zum I5. Tag) of the same compound?
Answer: 3 Punkte

Question: What about the “Verringerung der Summe der Punkte nach der Skale des neurologischen Defizits” value ([1]; whole group, in 5 Tagen nach dem Beginn der Behandlung) of the same compound?
Answer: 2,9 Punkte

Question: What about the “Verringerung der Summe der Punkte nach der Skale des neurologischen Defizits” value ([1]; whole group, in I4 Tagen nach dem Beginn der Behandlung) of the same compound?
Answer: 3,8 Punkte

Question: And the “Verbesserung Ausgeprägt, number of patients” value ([2]; of 62 patients)?
Answer: 8

Question: What about the “Verbesserung Mässig, number of patients” value ([2]; of 62 patients) of the same compound?
Answer: 16

Question: And the “Verbesserung Mässig, share of patients” value ([2]; of 62 patients)?
Answer: 26%

Question: And the “keine Anzeichen einer sich verschlimmernden Entwicklung (stabiler Zustand oder Verbesserung), share of patients” value ([2]; of 62 patients)?
Answer: 84%

Question: And the “Sich verschlimmernde Entwicklung, number of patients” value [2, 7]?
Answer: 10

Question: And the “Sich verschlimmernde Entwicklung, share of patients” value [2, 7]?
Answer: 16%

Question: And the “Verbesserung Ausgeprägt, share of patients” value [2, 7]?
Answer: 13%

Question: And the “Verbesserung des Zustandes, number of patients” value [2, 8]?
Answer: 24 Personen

Question: What about the “Verbesserung des Zustandes, share of patients” value [2, 8] of the same compound?
Answer: 39%

Question: And the “Fehlen der Dynamik, number of patients” value ([2]; of 62 patients, stable state)?
Answer: 28

Question: And the “Fehlen der Dynamik, share of patients” value ([2]; of 62 patients, stable state)?
Answer: 45%

Question: What about the “keine Anzeichen einer sich verschlimmernden Entwicklung, number of patients” value ([2]; of 62 patients, stable state or improvement) of the same compound?
Answer: 52 Personen

Question: And the “sich verschlimmernde Entwicklung seltener im Vergleich zur Kontrollgruppe” value ([2]; preparation plus conventional therapy vs conventional therapy alone)?
Answer: 4,8 fache

Question: And the “Parese in den Füssen” value ([2]; Beispiel 3, Patient, two 2-week courses of I mg i.m. twice daily, at admission 2 Punkte)?
Answer: 0 Punkte

Question: What about the “Paresegrad in proximalen Abschnitten von Beinen und Armen” value ([2]; Beispiel 4, Patient E., 4I years, two 2-week courses of 2 mg i.m. twice daily) of the same compound?
Answer: 0 Punkte

Question: What about the “Parese der Extremitäten” value ([2]; Beispiel 5, Patient M., second stay, two 2-week courses of I mg i.m. twice daily) of the same compound?
Answer: 0 Punkte

Question: And the “Differenzen der Latenzwerte III Peak-I Peak” value ([3]; Am 6. Tag)?
Answer: 2,22±0,05

Question: And the “Differenzen der Latenzwerte III Peak-I Peak” value ([3]; Am I5. Tag)?
Answer: 2,20±0,06

Question: What about the “Verhältnis der Amplituden V Peak - I Peak” value ([3]; Am I5. Tag) of the same compound?
Answer: 0,88±0,23

— patent EP0336976A1, “PHARMACEUTICAL PREPARATION FOR CURING MULTIPLE SCLEROSIS AND LATERAL A[…]” (VSESOJUZNY KARDIOLOGICHESKY NAUCHNY TSENTR AKADEMII …, priority 1987, dated 1989)
